In brackets after ≈: the same amount, converted by molar mass. Read-outs that look alike come from different tables or passages of the source.
Key:
[1] = tested on: S. aureus ATCC29219; experiment: Micro-broth dilution and drop plate antimicrobial susceptibility test; type: cell-based; conditions: Staphylococcus aureus
Method: (§1) In a sterile 96-well plate, serial dilutions were made with the test substance to final volume of 50 μl. Inoculum was then prepared in Mueller-Hinton broth to 0.5 McFarland and diluted before adding 50 μl to the well to make ∼1x10^5 CFU/ml. The culture plate was incubated at 35 °C for 20-24 hrs. A positive growth control and sterility wells were also prepared along with the culture wells. Absorbance at OD600 was taken using BMG Labtech SPECTROstar Omega spectrophotometer. MIC is determined by the lowest concentration without growth. IC50 is determined from plotting a dose-response curve, see Data Analysis below. To determine the MBC, using a multi-channel pipette, 1 μl of culture broth was taken from the same 96-well microdilution growth plate and carefully inoculated on surface of MH agar plate. The plate is then incubated for additional 20 hrs. at 35 °C. The MBC value is the lowest concentration without observed growth on the agar.

[2] = tested on: E. coli ATCC25922; experiment: as above; type: cell-based; conditions: Escherichia coli
Method: as §1

[3] = tested on: P. aeruginosa ATCC27853; experiment: as above; type: cell-based; conditions: Pseudomonas aeruginosa
Method: as §1

[4] = tested on: B. cereus ATCC11778; experiment: as above; type: cell-based, Bacillus cereus; conditions: for IC50 / MBC / MIC: Bacillus cereus; for Relative Therapeutic Index (RTI), B. cereus NRRL 11778: minimal lethal dose / MIC, 800 μg mL-1 used for >400
Method: as §1

[5] = tested on: Mtb-infected J774A.1 macrophages; experiment: Efficacy against Mtb growing in infected macrophages; conditions: J774A.1 macrophages treated 3 or 7 days
[6] = tested on: B. subtilis EC1524; experiment: Micro-broth dilution and drop plate antimicrobial susceptibility test; type: cell-based, Bacillus subtilis; conditions: for IC50 / MBC / MIC: Bacillus subtilis; for Relative Therapeutic Index (RTI), B. subtilis EC1524: minimal lethal dose / MIC, 800 μg mL-1 used for >400
Method: as §1

[7] = tested on: HEK293 cells; experiment: Cell proliferation assay (MTS); type: cell-based, human; conditions: for LD50 values, HEK293: MTS cell proliferation assay, 24 hrs, highest concentration 400 µg mL-1; for Minimal Lethal Dose, HEK 293: serial 2-fold dilutions (Table S6)
Method: (§2) In sterile 96-well plate, each well was seeded with ∼1x10^5 cells. The cells are then grown confluent overnight in 100 μl DMEM with 10% FBS. The medium is replenished with DMEM with 2% FBS and added vehicle control or test substance the next day. For test substance in methanol, stock was added to 25 μl of DMEM with 2% FBS or PBS and placed in the laminar flow hood to let the methanol evaporate (about 1-3 hrs). Once the methanol has evaporated, DMEM with 2% FBS was added to final volume of 100 μl of desired test concentration. […] Cells are grown for additional 24 hrs. The cell viability was determined by using Promega CellTiter 96^© AQueous One Solution Cell Proliferation Assay (3-(4,5-dimethylthiazol-2-yl)-5-(3-carboxymethoxyphenyl)-2-(4-sulfophenyl)-2H-tetrazolium, inner salt; MTS) System following the manufacture protocol.

[8] = tested on: HepG2 cells; experiment: Cell proliferation assay (MTS); type: cell-based, human; conditions: for LD50 values, HepG2: MTS cell proliferation assay, 24 hrs, highest concentration 400 µg mL-1; for Minimal Lethal Dose, HepG2: serial 2-fold dilutions (Table S6)
Method: as §2

[9] = tested on: Raji cells; experiment: Cell proliferation assay (MTS); type: cell-based, human; conditions: 24 hrs
Method: as §2

[10] = tested on: Mtb H37Rv ATCC27294; experiment: Minimum inhibitory concentrations testing against Mtb; type: cell-based, Mycobacterium tuberculosis; conditions: for MIC: Mycobacterium tuberculosis, 168 h; for Relative Therapeutic Index (RTI), Mtb H37RV a / Relative Therapeutic Index (RTI), Mtb H37RV b: minimal lethal dose / MIC, 800 μg mL-1 used for >400; for Relative Therapeutic Index (RTI), Mtb H37RV a: 7H9/ADC/Tw; for Relative Therapeutic Index (RTI), Mtb H37RV b: GAST/Fe
[11] = ATCC 11778 / NRRL11778, read-out: Minimal Inhibitory Concentration, B. cereus NRRL 11778
[12] = EC1524, read-out: Minimal Inhibitory Concentration, B. subtilis EC1524
[13] = read-out: 1-week MIC in 7H9/ADC/Tw
[14] = read-out: 1-week MIC in GAST/Fe
[15] = read-out: Minimal Inhibitory Concentration, Mtb H37RV a
[16] = read-out: Minimal Inhibitory Concentration, Mtb H37RV b

CCCCCCCCCCC(=O)N[C@H]1[C@H](O[C@H]2O[C@H](CO)[C@@H](O)[C@H](O)[C@H]2NC(=O)CCCCCCCCCC)O[C@H](C[C@@H](O)[C@H]2O[C@@H](n3ccc(=O)[nH]c3=O)[C@H](O)[C@@H]2O)[C@H](O)[C@@H]1O [TUN-11,11, Di-N-undecanoyl-tunicamycin]
IC50 [1]: 58 µg/mL (≈ 64.3 µM) | MBC [1]: 400 µg/mL (≈ 443 µM) | MIC [1]: 170 ± 60 µg/mL (≈ 188 µM) | IC50 [2]: 131 µg/mL (≈ 145 µM) | MBC [2]: 400 µg/mL (≈ 443 µM) | MIC [2]: 330 ± 120 µg/mL (≈ 365 µM) | IC50 [3]: 63.2 µg/mL (≈ 69.9 µM) | MBC [3]: 400 µg/mL (≈ 443 µM) | MIC [3]: 83 ± 29 µg/mL (≈ 91.9 µM) | IC50 ([4]; ATCC11778): 0.088 µg/mL (≈ 0.0974 µM) | MBC ([4]; ATCC11778): > 25 µg/mL | MIC ([4]; ATCC11778): 0.65 ± 0.23 µg/mL (≈ 0.72 µM) | MIC [4, 11]: 0.78 µg/mL (≈ 0.864 µM) | Relative Therapeutic Index (RTI), B. cereus NRRL 11778 [4]: 1026 | reduction of intracellular bacterial burdens ([5]; 1 × MIC): 1 logs | reduction of intracellular bacterial burdens ([5]; 10 × MIC): 2 logs | IC50 ([6]; EC1524): 0.85 ± 0.28 µg/mL (≈ 0.941 µM) | MBC ([6]; EC1524): > 1.56 µg/mL | MIC ([6]; EC1524): 1.3 ± 0.45 µg/mL (≈ 1.44 µM) | MIC [6, 12]: 1.56 µg/mL (≈ 1.73 µM) | Relative Therapeutic Index (RTI), B. subtilis EC1524 [6]: 513 | LD50 values, HEK293 [7]: N/A (N/A = not available. No or low cytotoxicity observed at highest, saturating concentration tested (400 µg mL-1)) | Minimal Lethal Dose, HEK 293 [7]: > 400 µg/mL | LD50 values, HepG2 [8]: N/A (N/A = not available. No or low cytotoxicity observed at highest, saturating concentration tested (400 µg mL-1)) | Minimal Lethal Dose, HepG2 [8]: > 400 µg/mL | LD50 values, Raji [9]: 103.65 ± 34.34 µg/mL | MIC [10, 13]: 4.1 ± 2.2 µg/mL (≈ 4.54 µM) | MIC [10, 14]: 1.6 ± 1.6 µg/mL (≈ 1.77 µM) | MIC [10, 15]: 4.1 µg/mL (≈ 4.54 µM) | MIC [10, 16]: 1.6 µg/mL (≈ 1.77 µM) | Relative Therapeutic Index (RTI), Mtb H37RV a [10]: 195 | Relative Therapeutic Index (RTI), Mtb H37RV b [10]: 500

CCCCCCCCCCCC(=O)N[C@H]1[C@H](O[C@H]2O[C@H](CO)[C@@H](O)[C@H](O)[C@H]2NC(=O)CCCCCCCCCCC)O[C@H](C[C@@H](O)[C@H]2O[C@@H](n3ccc(=O)[nH]c3=O)[C@H](O)[C@@H]2O)[C@H](O)[C@@H]1O [TUN-12,12, Di-N-dodecanoyl-tunicamycin]
IC50 [1]: 61.9 µg/mL (≈ 66.5 µM) | MBC [1]: > 400 µg/mL | MIC [1]: 170 ± 60 µg/mL (≈ 183 µM) | IC50 [2]: 182 µg/mL (≈ 195 µM) | MBC [2]: > 400 µg/mL | MIC [2]: 330 ± 120 µg/mL (≈ 354 µM) | IC50 [3]: 81.7 µg/mL (≈ 87.8 µM) | MBC [3]: > 400 µg/mL | MIC [3]: 170 ± 6 µg/mL (≈ 183 µM) | IC50 ([4]; ATCC11778): 1.4 ± 0.47 µg/mL (≈ 1.5 µM) | MBC ([4]; ATCC11778): > 200 µg/mL | MIC ([4]; ATCC11778): 42 ± 14 µg/mL (≈ 45.1 µM) | MIC [4, 11]: 50 µg/mL (≈ 53.7 µM) | Relative Therapeutic Index (RTI), B. cereus NRRL 11778 [4]: 16 | IC50 ([6]; EC1524): 58.9 µg/mL (≈ 63.3 µM) | MBC ([6]; EC1524): > 200 µg/mL | MIC ([6]; EC1524): 83 ± 29 µg/mL (≈ 89.1 µM) | MIC [6, 12]: 100 µg/mL (≈ 107 µM) | Relative Therapeutic Index (RTI), B. subtilis EC1524 [6]: 8 | LD50 values, HEK293 [7]: N/A (N/A = not available. No or low cytotoxicity observed at highest, saturating concentration tested (400 µg mL-1)) | Minimal Lethal Dose, HEK 293 [7]: > 400 µg/mL | LD50 values, HepG2 [8]: N/A (N/A = not available. No or low cytotoxicity observed at highest, saturating concentration tested (400 µg mL-1)) | Minimal Lethal Dose, HepG2 [8]: > 400 µg/mL | LD50 values, Raji [9]: 81.29 ± 30.20 µg/mL | MIC [10, 13]: 18.7 ± 5.4 µg/mL (≈ 20.1 µM) | MIC [10, 14]: 6.9 ± 6.2 µg/mL (≈ 7.41 µM) | MIC [10, 15]: 18.7 µg/mL (≈ 20.1 µM) | MIC [10, 16]: 6.9 µg/mL (≈ 7.41 µM) | Relative Therapeutic Index (RTI), Mtb H37RV a [10]: 43 | Relative Therapeutic Index (RTI), Mtb H37RV b [10]: 116

CC(C)=CCC[C@H](C)CC(=O)N[C@H]1[C@H](O[C@H]2O[C@H](CO)[C@@H](O)[C@H](O)[C@H]2NC(=O)C[C@@H](C)CCC=C(C)C)O[C@H](C[C@@H](O)[C@H]2O[C@@H](n3ccc(=O)[nH]c3=O)[C@H](O)[C@@H]2O)[C@H](O)[C@@H]1O [TUN-Cit,Cit, Di-N-citronoyl-tunicamycin]
IC50 [1]: 177 µg/mL (≈ 203 µM) | MBC [1]: > 200 µg/mL | MIC [1]: > 400 µg/mL | IC50 [2]: 218 µg/mL (≈ 250 µM) | MBC [2]: 400 µg/mL (≈ 459 µM) | MIC [2]: > 400 µg/mL | IC50 [3]: 70.3 µg/mL (≈ 80.7 µM) | MBC [3]: > 400 µg/mL | MIC [3]: 170 ± 60 µg/mL (≈ 195 µM) | IC50 ([4]; ATCC11778): 6.29 ± 2.1 µg/mL (≈ 7.22 µM) | MBC ([4]; ATCC11778): > 200 µg/mL | MIC ([4]; ATCC11778): 83 ± 29 µg/mL (≈ 95.3 µM) | MIC [4, 11]: 100 µg/mL (≈ 115 µM) | Relative Therapeutic Index (RTI), B. cereus NRRL 11778 [4]: 8 | IC50 ([6]; EC1524): 0.36 ± 0.12 µg/mL (≈ 0.413 µM) | MBC ([6]; EC1524): > 200 µg/mL | MIC ([6]; EC1524): 5.2 ± 1.8 µg/mL (≈ 5.97 µM) | MIC [6, 12]: 6.25 µg/mL (≈ 7.18 µM) | Relative Therapeutic Index (RTI), B. subtilis EC1524 [6]: 128 | LD50 values, HEK293 [7]: N/A (N/A = not available. No or low cytotoxicity observed at highest, saturating concentration tested (400 µg mL-1)) | Minimal Lethal Dose, HEK 293 [7]: > 400 µg/mL | LD50 values, HepG2 [8]: N/A (N/A = not available. No or low cytotoxicity observed at highest, saturating concentration tested (400 µg mL-1)) | Minimal Lethal Dose, HepG2 [8]: > 400 µg/mL | LD50 values, Raji [9]: 177.75 ± 75.17 µg/mL | MIC [10, 13]: 16.3 ± 8.8 µg/mL (≈ 18.7 µM) | MIC [10, 14]: 3.4 ± 3.1 µg/mL (≈ 3.9 µM) | MIC [10, 15]: 16.3 µg/mL (≈ 18.7 µM) | MIC [10, 16]: 3.4 µg/mL (≈ 3.9 µM) | Relative Therapeutic Index (RTI), Mtb H37RV a [10]: 49 | Relative Therapeutic Index (RTI), Mtb H37RV b [10]: 235

Source: paper PMC6218659, “Structures of DPAGT1 Explain Glycosylation Disease Mechanisms and Advance TB Antibiotic Design” (Cell, 2018)
